The source of these data is the SangsterLogP compilation.

Each structure is given as a SMILES string.

The nature of this series: method code SF-HPLC, from DOI: 10.1021/jf960844v.
One may read the logP as the decadic logarithm of the partition coefficient of the neutral form, usually between octanol and water. A high value points to a more lipophilic compound. Take `COC(=O)c1c(Oc2nc(OC)cc(OC)n2)cccc1/C(C)=N/OCCCl`: the log partition coefficient (logP) was 3.23.

`CCO/N=C(\C)c1cccc(Oc2nc(OC)cc(OC)n2)c1C(=O)OC` came in with a logP of 2.96.

`CCCCON=C(C)c1cccc(Oc2nc(OC)cc(OC)n2)c1C(=O)OC` gave a logP of 4.11.

In turn, `COC(=O)c1c(Oc2nc(OC)cc(OC)n2)cccc1C(C)=NOC(C)=O` came in with a logP of 1.68.

The compound `COC(=O)c1c(Oc2nc(OC)cc(OC)n2)cccc1C(C)=NOCCF` came in with a logP of 2.31.

`COC(=O)c1c(Oc2nc(OC)cc(OC)n2)cccc1C(C)=NOCc1ccccc1` yielded a logP of 4.01.

`COC(=O)c1c(Oc2nc(OC)cc(OC)n2)cccc1C(C)=NOCC(F)(F)F` yielded a log partition coefficient (logP) of 3.39.

Take `COC(=O)c1c(Oc2nc(OC)cc(OC)n2)cccc1C(C)=NOCC=C(Cl)Cl`: the logP worked out at 4.23.

On to `C=CCO/N=C(\C)c1cccc(Oc2nc(OC)cc(OC)n2)c1C(=O)OC`, for which the logP is 3.13.

`C=C(Br)CON=C(C)c1cccc(Oc2nc(OC)cc(OC)n2)c1C(=O)OC` gave a logP of 3.73.

`CO/N=C(\C)c1cccc(Oc2nc(OC)cc(OC)n2)c1C(=O)OC` returned a logP of 2.57.

Turning to `COC(=O)c1c(Oc2nc(OC)cc(OC)n2)cccc1C(C)=NO`, the logP worked out at 1.93.

`CCCO/N=C(\C)c1cccc(Oc2nc(OC)cc(OC)n2)c1C(=O)OC` displayed a lipophilicity (logP) of 3.59.

`C=C(Cl)CON=C(C)c1cccc(Oc2nc(OC)cc(OC)n2)c1C(=O)OC` showed a logP of 3.63.
